Experimental data taken from patent publication US20160102363A1, “METHODS AND COMPOSITIONS FOR PREDICTING THERAPEUTIC EFFICACY OF KINASE INHIBITORS IN PATIENTS WITH MYELODYSPLASTIC SYNDROME OR RELATED DISORDERS” (ONCONOVA THERAPEUTICS, INC., priority 2013, published 2016).

System: MDS patients
Assay: Clinical hematological response of MDS patients treated with Rigosertib
Type: in vivo, human
Conditions: number of patients of 32 MDS patients
Description: As used herein, “response” is defined by standard clinical criteria, importantly including amelioration of transfusion-dependent anemia, which is a major hallmark of myelodysplastic syndromes (MDS).
This study sought to identify DNA methylation markers that can predict the therapeutic response to a different, and an even more widely pertinent, class of anti-cancer drugs, namely broad-specificity tyrosine kinase inhibitors (TKI's) or a broad specificity kinase inhibitors. As used herein, “response” is defined by standard clinical criteria, importantly including amelioration of transfusion-dependent anemia, which is a major hallmark of myelodysplastic syndromes (MDS).
Pre-therapy bone marrow mononuclear cells from 32 patients were analyzed using the Illumina 450K methylation array platform.
In summary, seven (7) of 32 MDS patients had complete response or CR (Transfusion independence (TI)+increase in hemoglobin (Hb)>2 g/dL), ten (10) had partial response or PR (TI without Hb increase) and fifteen (15) had no response or NR. […] Bisulfite sequencing (which allows quantification of multiple consecutive CpGs in an amplicon) of several differentially methylated loci confirmed the Illumina 450K data.

## COc1cc(OC)c(/C=C/S(=O)(=O)Cc2ccc(OC)c(NCC(=O)[O-])c2)c(OC)c1.[Na+] [Rigosertib]
  complete response or CR (Transfusion independence (TI)+increase in hemoglobin (Hb)>2 g/dL): 7
  no response or NR: 15
  partial response or PR (TI without Hb increase): 10
